Tests used:
Type in all cases: cell-based, Epstein-Barr virus (EBV)
[1] = tested on: ZEBRA and cleaved caspase 1 in EBV-positive Mutu-I Burkitt lymphoma cells; assay: Immunoblotting for ZEBRA, procaspase 1 and cleaved caspase 1 in Mutu-I cells induced with sodium butyrate; conditions: 1 μM for 2 hours before sodium butyrate for 24 hours, FIG. 7
Source text: Cells were harvested and subjected to immunoblotting with monoclonal antibodies to ZEBRA, procaspase 1, cleaved caspase 1, or the control protein β-actin to analyze protein expression. […] Cleavage of caspase is a marker for programmed cell death.

[2] = tested on: EBV lytic cycle (ZEBRA) in EBV-positive Mutu-I Burkitt lymphoma cells; assay: Flow cytometry for ZEBRA in Mutu-I cells, lytic cycle induced with sodium butyrate; conditions: sodium butyrate 24 hours, 2 h pretreatment
Source text: Cells were harvested, fixed and permeabilized, stained with a monoclonal antibody to the viral latent-to-lytic switch protein ZEBRA, and examined by flow cytometry. Cells were stained in parallel with an isotype-matched control antibody for placement of gates. […] Decreasing EBV switching to lytic phase decreases the risk of the B cells developing lymphoma.

[3] = tested on: EBV lytic cycle proteins ZEBRA and EA-D in EBV-positive HH514-16 Burkitt lymphoma cell line; assay: Immunoblotting for ZEBRA and EA-D in HH514-16 cells induced with sodium butyrate
Source text: Cells were harvested and subjected to immunoblotting with monoclonal antibodies to ZEBRA and EA-D (Early antigen-diffuse). EA-D is useful in the diagnosis of acute Epstein-Barr virus (EBV) infection and EBV reactivation and functions downstream of ZEBRA.
Cells were harvested and subjected to immunoblotting with monoclonal antibodies to ZEBRA or the control protein β-actin to analyze protein expression.

[4] = tested on: EBV lytic cycle (ZEBRA) in EBV-positive HH514-16 Burkitt lymphoma cell line; assay: Flow cytometry for ZEBRA in HH514-16 cells, lytic cycle induced with AZA; conditions: for Percent positive cells ZEBRA: 2 h pretreatment
Source text: Cells were harvested, fixed and permeabilized, stained with a monoclonal antibody to the viral latent-to-lytic switch protein ZEBRA (Z EBV Replication Activator), and examined by flow cytometry. Cells were stained in parallel with an isotype-matched control antibody for placement of gates.

[5] = tested on: EBV lytic cycle proteins ZEBRA and EA-D in EBV-positive HH514-16 Burkitt lymphoma cell line; assay: Immunoblotting for ZEBRA and EA-D in HH514-16 cells induced with AZA; conditions: HH514-16, varying concentrations 2 hours before AZA for 24 hours, FIG. 2
Source text: (§1) Cells were harvested and subjected to immunoblotting with monoclonal antibodies to ZEBRA and EA-D (Early antigen-diffuse).

[6] = tested on: EBV lytic cycle (ZEBRA) in EBV-positive Akata Burkitt lymphoma cell line; assay: Flow cytometry for ZEBRA in Akata cells, lytic cycle induced with rabbit-anti human IgG; conditions: for Percent positive cells ZEBRA: Rabbit anti-human IgG induction 24 h, 2 h pretreatment
Source text: Akata cells are an EBV-producer line established from a patient with Burkitt's lymphoma. Akata cells produce transforming virus upon treatment of cells with anti-immunoglobulin antibodies. Cells were harvested, fixed and permeabilized, stained with a monoclonal antibody to the viral latent-to-lytic switch protein ZEBRA (Z EBV Replication Activator), and examined by flow cytometry. Cells were stained in parallel with an isotype-matched control antibody for placement of gates.

[7] = tested on: EBV lytic cycle proteins ZEBRA and EA-D in EBV-positive Akata Burkitt lymphoma cell line; assay: Immunoblotting for ZEBRA and EA-D in Akata cells induced with anti-IgG; conditions: varying concentrations 2 hours before anti-IgG for 24 hours, FIG. 3
Source text: as §1

[8] = tested on: EBV lytic cycle (ZEBRA) in EBV-positive HH514-16 Burkitt lymphoma cell line; assay: Flow cytometry for ZEBRA in HH514-16 cells, lytic cycle induced with sodium butyrate; conditions: for Percent positive cells ZEBRA: 2 h pretreatment
Source text: Cells were harvested, fixed and permeabilized, stained with a monoclonal antibody to the viral latent-to-lytic switch protein ZEBRA (Z EBV Replication Activator), and examined by flow cytometry. ZEBRA is an early lytic protein of EBV, encoded by BZLFI, that drives the lytic cascade. Cells were stained in parallel with an isotype-matched control antibody for placement of gates. […] Decreasing EBV switching to lytic phase decreases the risk of the B cells developing lymphoma.

[9] = HH514-16, varying concentrations 2 hours before sodium butyrate for 24 hours, FIG. 4
[10] = HH514-16, varying concentrations 2 hours before NaB for 24 or 48 hours, FIG. 1

CC#CC(=O)N1CCC[C@H]1c1nc(-c2ccc(C(=O)Nc3ccccn3)cc2)c2c(N)nccn12 [Acalabrutinib]
Cleaved caspase 1 (immunoblot) [1]: significantly reduced | expression of ZEBRA (immunoblot) [1]: significantly reduced | Percent ZEBRA positive cells ([2]; inhibitor conc. 1 μM): 1.15% | Percent ZEBRA positive cells ([2]; inhibitor conc. 10 μM): 0.92% | expression of ZEBRA (immunoblot) [3, 9]: significantly reduced

C=CC(=O)N1CCC[C@@H](n2nc(-c3ccc(Oc4ccccc4)cc3)c3c(N)ncnc32)C1 [Ibrutinib]
levels of ZEBRA (flow cytometry, in words) ([4]; HH514-16, AZA 24 or 48 hours, varying concentrations): decreased | Percent positive cells ZEBRA ([4]; HH514-16, AZA induction 24 h, ibrutinib 0.25 μM): 13% | Percent positive cells ZEBRA ([4]; HH514-16, AZA induction 24 h, ibrutinib 0.5 μM): 11% | Percent positive cells ZEBRA ([4]; HH514-16, AZA induction 24 h, ibrutinib 1 μM): 9.0% | Percent positive cells ZEBRA ([4]; HH514-16, AZA induction 24 h, ibrutinib 2 μM): 10% | Percent positive cells ZEBRA ([4]; HH514-16, AZA induction 24 h, ibrutinib 5 μM): 9.0% | Percent positive cells ZEBRA ([4]; HH514-16, AZA induction 48 h, ibrutinib 0.25 μM): 13% | Percent positive cells ZEBRA ([4]; HH514-16, AZA induction 48 h, ibrutinib 0.5 μM): 13% | Percent positive cells ZEBRA ([4]; HH514-16, AZA induction 48 h, ibrutinib 1 μM): 15% | Percent positive cells ZEBRA ([4]; HH514-16, AZA induction 48 h, ibrutinib 2 μM): 13% | Percent positive cells ZEBRA ([4]; HH514-16, AZA induction 48 h, ibrutinib 5 μM): 14% | expression of EA-D (immunoblot) [5]: significantly reduced | expression of ZEBRA (immunoblot) [5]: significantly reduced | Percent positive cells ZEBRA ([6]; ibrutinib 0.25 μM): 7% | Percent positive cells ZEBRA ([6]; ibrutinib 0.5 μM): 7% | Percent positive cells ZEBRA ([6]; ibrutinib 1 μM): 5.5% | Percent positive cells ZEBRA ([6]; ibrutinib 2 μM): 5.7% | Percent positive cells ZEBRA ([6]; ibrutinib 5 μM): 5.7% | levels of ZEBRA (flow cytometry, in words) ([6]; rabbit-anti human IgG 24 hours, varying concentrations): decreased | expression of EA-D (immunoblot) [7]: significantly reduced | expression of ZEBRA (immunoblot) [7]: significantly reduced | Percent ZEBRA positive cells ([2]; inhibitor conc. 0.5 μM): 0.52% | Percent ZEBRA positive cells ([2]; inhibitor conc. 1 μM): 0.73% | expression of EA-D (immunoblot) [3, 10]: significantly reduced | expression of ZEBRA (immunoblot) [3, 10]: significantly reduced | expression of ZEBRA (immunoblot) [3, 9]: significantly reduced | levels of ZEBRA (flow cytometry, in words) ([8]; HH514-16, NaB 24 or 48 hours, varying concentrations): decreased | Percent positive cells ZEBRA ([8]; HH514-16, Sodium Butyrate induction 24 h, ibrutinib 0.25 μM): 13% | Percent positive cells ZEBRA ([8]; HH514-16, Sodium Butyrate induction 24 h, ibrutinib 0.5 μM): 9.5% | Percent positive cells ZEBRA ([8]; HH514-16, Sodium Butyrate induction 24 h, ibrutinib 1 μM): 9.0% | Percent positive cells ZEBRA ([8]; HH514-16, Sodium Butyrate induction 24 h, ibrutinib 2 μM): 8.6% | Percent positive cells ZEBRA ([8]; HH514-16, Sodium Butyrate induction 24 h, ibrutinib 5 μM): 7.0% | Percent positive cells ZEBRA ([8]; HH514-16, Sodium Butyrate induction 48 h, ibrutinib 0.25 μM): 38% | Percent positive cells ZEBRA ([8]; HH514-16, Sodium Butyrate induction 48 h, ibrutinib 0.5 μM): 30% | Percent positive cells ZEBRA ([8]; HH514-16, Sodium Butyrate induction 48 h, ibrutinib 1 μM): 23% | Percent positive cells ZEBRA ([8]; HH514-16, Sodium Butyrate induction 48 h, ibrutinib 2 μM): 22% | Percent positive cells ZEBRA ([8]; HH514-16, Sodium Butyrate induction 48 h, ibrutinib 5 μM): 18%

C=CC(=O)N1CCC([C@@H]2CCNc3c(C(N)=O)c(-c4ccc(Oc5ccccc5)cc4)nn32)CC1 [Zanubrutinib]
Cleaved caspase 1 (immunoblot) [1]: significantly reduced | expression of ZEBRA (immunoblot) [1]: significantly reduced | Percent ZEBRA positive cells ([2]; inhibitor conc. 1 μM): 0.65% | Percent ZEBRA positive cells ([2]; inhibitor conc. 10 μM): 0.85% | expression of ZEBRA (immunoblot) [3, 9]: significantly reduced

Reference: patent US20250041308A1, “BRUTON'S TYROSINE KINASE INHIBITORS AS ANTIVIRAL AGENTS” (University of Florida Research Foundation, Incorporated, priority 2022, published 2025)
